Measurements as given in ChEMBL document CHEMBL5614464, “Geldanamycin, a Naturally Occurring Inhibitor of Hsp90 and a Lead Compound for Medicinal Chemistry” (J Med Chem, 2024).

Experiments:
[1] = Inhibition of recombinant HSP90 (unknown origin); parameters: species or system Homo sapiens
[2] = system: SK-OV-3; assay: Antiproliferative activity against human SK-OV-3 cells assessed as reduction in cell viability incubated for 48 hrs by MTT assay; format: functional, cell-based; settings: SK-OV-3, 48 h
[3] = system: PC-3; assay: Antiproliferative activity against human PC-3 cells assessed as reduction in cell viability incubated for 48 hrs by MTT assay; format: functional, cell-based; settings: PC-3, 48 h

| IC50 [1] [nM] | IC50 [2] [nM] | IC50 [3] [nM] | Compound |
| --- | --- | --- | --- |
| 1700 | – | – | CO[C@H]1/C=C\C=C(/C)C(=O)NC2=CC(=O)C(c3ccccc3)=C(C[C@@H](C)C[C@H](OC)[C@H](O)[C@@H](C)/C=C(\C)[C@@H]1OC(N)=O)C2=O |
| – | 580 | 580 | COC1=C2C[C@@H](C)C[C@H](OC)[C@H](O)[C@@H](C)/C=C(\C)[C@H](OC(N)=O)[C@@H](OC)/C=C\C=C(/C)C(=O)NC(=CC1=O)C2=O [GELDANAMYCIN] |
